In brackets after ≈: the same amount, converted by molar mass.
Columns and labels:
[1] = system: polyA-polyU (RNA, polymer) A/U; assay: UV melting at 260 nm; conditions: PBS, I = 0.05 M, cations not specified, pH 7, r = 0.3 [compound]/[polynucleotide]
[2] = system: polyG-polyC (polyC-polyG) (RNA, polymer) G/C; assay: UV-Vis titration, Scatchard; conditions: PBS; for log Ks: I = 0.05 M (Table 1 says I = 0.015 M), cations not specified, I = 0.015 M (Methods: 0.05 M)
[3] = system: polyA-polyU (RNA, polymer) A/U; assay: UV-Vis titration, Scatchard; conditions: PBS, I = 0.05 M (Table 1 says I = 0.015 M), cations not specified, I = 0.015 M (Methods: 0.05 M)
polyA-polyU [4] = assay: UV–Vis titration with polyA-polyU (Scatchard); format: binding; conditions: PBS, pH 7; for Hypochromic effect H/%, polyA-polyU: UV–Vis titration, calculated by Scatchard equation; for log Ks, polyA-polyU: binding constant, Scatchard
Protocol: (§1) Polynucleotides were purchased as follows: polyG–polyC, polyA–polyU (Sigma-Aldrich, St. Louis, MO), calf thymus ctDNA (Aldrich). Polynucleotides were dissolved in PBS buffer, I = 0.05 mol dm^−3, pH 7.0. The calf thymus ctDNA was additionally sonicated and filtered through a […] filter. The polynucleotide concentration was spectroscopically determined as the concentration of nucleobases.
(§2) All UV–Vis absorbance measurements were conducted on a Perkin Elmer Lambda 25 spectrophotometer (Perkin Elmer, Waltham, MA). A quartz cell with a 1 cm path length was used for all absorbance studies. Compound stock solutions were 1 mM. The DNA/RNA at increasing ratios was then titrated into the compound buffer solution (1.48 × 10^−5 mol dm^−3) and the corresponding absorption spectra were recorded under the same conditions. All data were graphed and analysed using Origin software version 9.0 (OriginLab Corporation, Northampton, MA). The stability constants (Ks) and [bound compound]/[polynucleotide phosphate] ratios (n) were calculated according to the Scatchard Equation[63] ^, [64]. Values for Ks and n given in Table 1 all have satisfying correlation coefficients (0.99).
(§3) The binding constants logKs and the density of the binding sites n were calculated using Scatchard plot analysis. In addition, the binding constants Ks for compounds 8b and 8e were calculated only for titration data taken at the r ≥ 0.1, because below that ratio changes in absorption maxima were too small for accurate calculation (ΔA ≤ 0.04) (Table 1). The binding constants Ks and ratios n obtained by processing UV–Vis titration data using the Scatchard equation are summarised in Table 1.

E. faecium VRE = assay: Broth microdilution MIC, VRE clinical strain; format: cell-based; conditions: Enterococcus faecium
Protocol: (§4) The compounds were evaluated for their in vitro anti-bacterial activity against Gram-positive bacteria: S. aureus (ATCC 25923), MRSA, methicillin-sensitive S. aureus (MSSA), E. faecalis, vancomycin-resistant E. faecium (VREF), and Gram-negative bacteria: E. coli (ATCC 25925), P. aeruginosa (ATCC 27853), A. baumannii (ATCC 19606) and ESBL-producing K. pneumoniae (ATCC 27736). Standard broth microdilution method as recommended in guidelines of Clinical and Laboratory Standards Institute[61] ^, [65] ^, [66] was applied and the minimum inhibitory concentration (MIC) of compounds was tested. In short, testing was performed in U-bottomed 96-well sterile plastic microdilution trays (Falcon 3077, Becton Dickinson Labware, Franklin Lakes, NJ) in cation (Ca^2+ and Mg^2+) adjusted Mueller–Hinton broth medium (Becton Dickinson and Co., Cockeysville, MD). All testings were performed in triplicate.

S. aureus MRSA = assay: Broth microdilution MIC, MRSA clinical strain; format: cell-based; conditions: Staphylococcus aureus, antibiotic-resistant clinical strain
Protocol: as §4

A. baumannii ATCC 19606 = assay: Broth microdilution MIC, A. baumannii ATCC 19606; format: cell-based; conditions: Acinetobacter baumannii, ATCC19606; Table S2
Protocol: as §4
(§5) The in vitro anti-bacterial activity of 5-amidinobenzimidazoles 7a–7e, 8a–8e, and 9a–9e was tested against Gram-positive bacteria including S. aureus (ATCC 25923), Enterococcus faecalis (ATCC 29212), and Gram-negative bacteria including E. coli (ATCC 25925), K. pneumoniae (ATCC 700803), P. aeruginosa (ATCC 27853), and Acinetobacter baumannii (ATCC 19606).

S. aureus MSSA = assay: Broth microdilution MIC, MSSA clinical strain; format: cell-based; conditions: Staphylococcus aureus
Protocol: as §4

E. faecalis ATCC 29212 = assay: Broth microdilution MIC, E. faecalis ATCC 29212; format: cell-based; conditions: Enterococcus faecalis, ATCC29212; Table S2
Protocol: as §4, §5

S. aureus ATCC 25923 = assay: Broth microdilution MIC, S. aureus ATCC 25923; format: cell-based; conditions: Staphylococcus aureus, ATCC25923; Table S2
Protocol: as §4, §5

calf thymus ctDNA = assay: UV–Vis titration with ctDNA (Scatchard); format: binding; conditions: for Hypochromic effect H/%, ctDNA: UV–Vis titration, calculated by Scatchard equation; for Hypochromic effect H/%, ctDNA / log Ks, ctDNA: PBS, pH 7; for log Ks, ctDNA: binding constant, Scatchard
Protocol: as §1, §2, §3

polyC-polyG = assay: UV–Vis titration with polyC-polyG (Scatchard); format: binding; conditions: PBS, pH 7; for Hypochromic effect H/%, polyC-polyG: UV–Vis titration, calculated by Scatchard equation; for log Ks, polyC-polyG: binding constant, Scatchard
Protocol: as §1, §2, §3

E. coli ATCC 25925 = assay: Broth microdilution MIC, E. coli ATCC 25925; format: cell-based; conditions: Escherichia coli, ATCC25925; Table S2
Protocol: as §4, §5

K. pneumonia ATCC 700803 = assay: Broth microdilution MIC, K. pneumoniae ATCC 700803; format: cell-based; conditions: Klebsiella pneumoniae, ATCC700803; Table S2
Protocol: as §4, §5

P. aeruginosa ATCC 27853 = assay: Broth microdilution MIC, P. aeruginosa ATCC 27853; format: cell-based; conditions: Pseudomonas aeruginosa, ATCC27853; Table S2
Protocol: as §4, §5

[5] = system: bloodstream form T. brucei (strain 221); assay: Anti-trypanosomal screening, resazurin; format: cell-based; conditions: Trypanosoma brucei, mean of triplicate ± SEM
Protocol: Bloodstream form T. brucei (strain 221) were cultured in modified Iscove’s medium, as outlined[67] and trypanocidal assays were performed using 96-well microtitre plates. […] Resazurin was added after 48 h, the plates incubated for a further 16 h, and then read in a Spectramax plate reader (Molecular Devices Corporation, San Jose, CA). The data were analysed using GraphPad Prism (GraphPad, La Jolla, CA). Each drug concentration was tested in triplicate.

polyA-polyU [6] = assay: Thermal melting (ΔTm) of polyA-polyU; format: binding; conditions: for ΔTm, polyA-polyU, r = 0.1: PBS, pH 7; for ΔTm, polyA-polyU, r = 0.3 / ΔTm, polyA-polyU, r = 0.5: first melting midpoint
Protocol: (§6) T m experiments were conducted with a Perkin Elmer Lambda 25 spectrophotometer in 1 cm quartz cuvettes. The absorbance of the DNA/RNA-compound complex was monitored at 260 nm as a function of temperature. The absorbance of the ligands was subtracted from every curve, and the absorbance scale was normalised. The ΔT m values were calculated by subtracting T m of the free nucleic acid from T m of the complex. Every reported ΔT m value was the average of at least two measurements. The error of ΔT m is ±0.5 °C. All data were graphed and analysed using Origin software version 9.0.
(§7) Denaturation experiments were carried out at different amounts of the compounds (r = 0.1, 0.3, 0.5, and 0.7 eq; r = [compound]/[polynucleotide]) with ctDNA and polyA-polyU.

ctDNA = assay: Thermal melting (ΔTm) of ctDNA; format: binding, calf; conditions: PBS, pH 7; for ΔTm, ctDNA, r = 0.3: r = [compound]/[polynucleotide] 0.3, error ±0.5 °C
Protocol: as §6, §7

SMILES | log Ks ([3]; pH 7, per base) | Hypochromic effect H/%, polyA-polyU (polyA-polyU [4]) [%] | log Ks, polyA-polyU (polyA-polyU [4]) | MIC (E. faecium VRE) [µg/mL] | MIC (S. aureus MRSA) [µg/mL] | MIC (A. baumannii ATCC 19606) [µg/mL] | MIC (S. aureus MSSA) [µg/mL] | MIC (E. faecalis ATCC 29212) [µg/mL] | MIC (S. aureus ATCC 25923) [µg/mL] | Hypochromic effect H/%, ctDNA (calf thymus ctDNA) [%] | log Ks, polyC-polyG (polyC-polyG) | MIC (E. coli ATCC 25925) [µg/mL] | MIC (K. pneumonia ATCC 700803) [µg/mL] | MIC (P. aeruginosa ATCC 27853) [µg/mL] | IC50 [5] [µM] | IC90 [5] [µM] | ΔTm, polyA-polyU, r = 0.1 (polyA-polyU [6]) [°C] | ΔTm, polyA-polyU, r = 0.3 (polyA-polyU [6]) [°C] | ΔTm, polyA-polyU, r = 0.5 (polyA-polyU [6]) [°C] | ΔTm, ctDNA, r = 0.5 (ctDNA) [°C] | also measured
CC(C)NC(=N)c1ccc2nc(-c3ccc(OCc4cn(CSc5ccccc5)nn4)cc3)[nH]c2c1 | 5.96 |  |  |  |  |  |  |  |  |  |  |  |  |  |  |  |  |  |  |  | ΔTm ([1]; error ±0.5 (shift within error), per base): 0.23 °C; log Ks ([2]; pH 7, per base): 7.20
COc1ccc(-n2cc(COc3ccc(-c4nc5ccc(C6=NCCN6)cc5[nH]4)cc3)nn2)cc1 |  |  |  |  |  |  |  |  |  |  |  |  |  |  |  |  |  |  |  |  | ΔTm ([1]; error ±0.5, biphasic, second midpoint 36.08, per base): 2.67 °C; binding ([2]; pH 7, changes too small for accurate calculation, compound 14.8 µM): weak; log Ks ([3]; pH 7, n fixed, per base): 5.46
CC(C)NC(=N)c1ccc2[nH]c(-c3ccc(OCc4cn(-c5ccccc5)nn4)cc3)nc2c1 [Compound 8a] | 5.87 | 46.5 | 5.87 | 128 (≈ 283 µM) | 8 (≈ 17.7 µM) | > 256 | 128 (≈ 283 µM) | 256 (≈ 567 µM) | 128 (≈ 283 µM) | 41.0 | 6.17 | 256 (≈ 567 µM) | > 256 | > 256 | 7.1 ± 0.7 | 16.7 ± 1.2 | 0.32 | 0.64 | 1.11 | 3.94 | ΔTm ([1]; error ±0.5, per base): 0.64 °C; log Ks ([2]; pH 7, n fixed, per base): 6.17; log Ks, ctDNA (calf thymus ctDNA): 6.17; Hypochromic effect H/%, polyC-polyG (polyC-polyG): 5.86%; ΔTm, ctDNA, r = 0.7 (ctDNA): 4.25 °C; ΔTm, ctDNA, r = 0.3 (ctDNA): 3.35 °C
CC(C)NC(=N)c1ccc2[nH]c(-c3ccc(OCc4cn(Cc5ccccc5)nn4)cc3)nc2c1 [Compound 8d] | 6.13 | 53.8 | 6.13 | 64 (≈ 137 µM) | 32 (≈ 68.7 µM) | > 256 | 64 (≈ 137 µM) | 128 (≈ 275 µM) | 64 (≈ 137 µM) | 41.2 | 5.54 | > 256 | > 256 | > 256 | 12.9 ± 0.2 | 21.6 ± 0.4 | 0.91 | 0.51 | 0.72 | 3.32 | log Ks ([2]; pH 7, n fixed, per base): 5.54; log Ks, ctDNA (calf thymus ctDNA): 5.93; ΔTm, ctDNA, r = 0.7 (ctDNA): 3.63 °C; ΔTm, ctDNA, r = 0.3 (ctDNA): 1.76 °C
CC(C)NC(=N)c1ccc2[nH]c(-c3ccc(OCc4cn(CSc5ccccc5)nn4)cc3)nc2c1.Cl.Cl [Compound 8e, N-isopropyl-2–(4-((1-(phenylthiomethyl)-1H-1,2,3-triazol-4-yl)methoxy)phenyl)-1H-benz[d]imidazole-5-carboximidamide dihydrochloride] |  | 47.2 | 5.96 | 64 | 8 | > 256 | 64 | 256 | 64 | 44.2 | 7.20 | 256 | > 256 | > 256 | 13.5 ± 0.8 | 22.5 ± 0.3 | 0.52 | 0.23 | 0.26 | 1.72 | log Ks, ctDNA (range r ≥ 0.1) (calf thymus ctDNA; footnote f: mixed binding mode, calculated in range r ≥ 0.1): 6.39; Hypochromic effect H/%, polyC-polyG (polyC-polyG): 5.96%; melting point: 152 to 154 °C; ΔTm, ctDNA, r = 0.7 (ctDNA): 1.71 °C; ΔTm, ctDNA, r = 0.3 (ctDNA): 2.22 °C
